Measurements taken from paper PMC3274548, “Toward New Therapeutics for Skin and Soft Tissue Infections: Propargyl-Linked Antifolates Are Potent Inhibitors of MRSA and Streptococcus pyogenes” (PLoS ONE, 2012).
In brackets after ≈: the same amount, converted by molar mass. Where two headings read alike, the source gives them in different places.

What was measured:
MRSA (S.aureus 13709) = assay: MIC, broth microdilution with Alamar Blue; format: cell-based, Staphylococcus aureus; conditions: for Selectivity MRSA: IC50 (MCF10)/MIC (pathogen), both values in µM; for MIC: Staphylococcus aureus, MRSA
Procedure: (§1) Stock solutions of standard antibiotics and test compounds were made at 50 mM in DMSO. […] For susceptibility testing, 10 µL of glycerol stock was suspended in a 10 mL shake flask culture of chemically defined Isosensitest broth (Oxoid) supplemented with 2% w/v glucose. A sample of the shake flask culture was diluted to 1×10^6 cells/mL in media and added to 96-well test plates (100 µL per well) containing test compounds dispensed in DMSO (2 µL) using serial two-fold dilutions. After an incubation period (30°C) determined from the strain specific doubling time, a 0.03% w/v aqueous solution of resazurin (10 µL) was added and the plates were allowed to incubate; each well was then scored for dye reduction.

S. aureus DHFR = biological target: T1, S. aureus DHFR (Staphylococcus aureus, UniProt P0A017); assay: biochemical; format: biochemical
T1 construct: the DHFR gene was inserted into vector pET41 with a His8 tag for purification; His8; made in house; host or cells: E. coli BL21 (DE3)
T1 sequence (P0A017 whole entry): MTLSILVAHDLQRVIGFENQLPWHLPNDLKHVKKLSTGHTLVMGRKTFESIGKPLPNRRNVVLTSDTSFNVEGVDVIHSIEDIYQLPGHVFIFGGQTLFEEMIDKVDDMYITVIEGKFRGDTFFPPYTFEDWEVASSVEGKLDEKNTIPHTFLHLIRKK
Procedure: (§2) S. aureus DHFR was cloned, expressed and purified as previously described. Briefly, the DHFR gene was inserted into vector pET41 with a His8 tag for purification. The protein was expressed in E. coli BL21 (DE3) cells. […] The protein was concentrated to ∼5 mg/mL. S. pyogenes DHFR was cloned using PCR from genomic DNA and inserted in vector pET-41.
(§3) Enzyme inhibition assays were performed by monitoring the rate of NADPH oxidation by the DHFR enzyme at an absorbance of 340 nm over five minutes. Assays were performed in the presence of saturating concentrations of NADPH (100 µM) and initiated with dihydrofolate (1 mM). All assays were completed at 25°C in a buffer containing 20 mM TES pH 7.0, 50 mM KCl, 10 mM 2-mercaptoethanol, 0.5 mM EDTA and 1 mg/mL BSA. Inhibition was measured at least three times with inhibitor concentrations near the IC50 value and the average IC50 value is reported with a standard deviation.

S. pyogenes DHFR = S. pyogenes DHFR (Streptococcus pyogenes, UniProt Q9A091); assay: biochemical; format: biochemical; conditions: IC50 (human)/IC50 (pathogen)
Sequence of S. pyogenes DHFR (Q9A091 entry or part of it): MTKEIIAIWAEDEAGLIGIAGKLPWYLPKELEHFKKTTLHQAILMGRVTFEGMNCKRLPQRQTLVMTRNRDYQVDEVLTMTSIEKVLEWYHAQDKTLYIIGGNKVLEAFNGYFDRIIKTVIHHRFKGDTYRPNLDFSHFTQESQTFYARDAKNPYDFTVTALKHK
Procedure: as §2, §3

MCF-10 cells = assay: Mammalian cell toxicity (Alamar Blue); format: cell-based; conditions: Homo sapiens, MCF10; cytotoxicity, 4 h incubation; read-out: IC50 MCF-10
Procedure: Adherent cell lines were maintained in Eagle's Minimal Essential Media (Sigma-Aldrich, St. Louis, MO, USA) with 2 mM glutamine and Earle's Balanced Salt Solution (HyClone, Logan, UT, USA) adjusted to contain 1.5 g/L sodium bicarbonate, 0.1 mM non-essential amino acids, 1 mM sodium pyruvate and 10% fetal calf serum. Fetal calf serum used in these assays was lot matched throughout. […] Toxicity assays were conducted between passages 10–20. Target compound toxicity was measured by incubating the test compound with the cells for 4 h, washing the cells and finally treating the cells with Alamar Blue. After 12–24 h, the fluorescence of the reduced dye was measured. Fluorescence intensity as a function of test compound concentration was fit to the Fermi equation, using non-linear least squares regression analysis, to estimate IC50 values.

HepG2 cells = assay: Mammalian cell toxicity (Alamar Blue); format: cell-based; conditions: Homo sapiens, cytotoxicity, 4 h incubation
Procedure: Fetal calf serum used in these assays was lot matched throughout. All cultures were maintained under a humidified 5% CO2 atmosphere at 37°C, had media refreshed twice weekly and were subcultured by trypsinization and resuspension at a ratio of 1∶5 each week. Toxicity assays were conducted between passages 10–20. Target compound toxicity was measured by incubating the test compound with the cells for 4 h, washing the cells and finally treating the cells with Alamar Blue. After 12–24 h, the fluorescence of the reduced dye was measured. Fluorescence intensity as a function of test compound concentration was fit to the Fermi equation, using non-linear least squares regression analysis, to estimate IC50 values.

Streptococcus pyogenes = assay: MIC, broth microdilution with Alamar Blue; format: cell-based; conditions: for Selectivity S. pyogenes: IC50 (MCF10)/MIC (pathogen), both values in µM; for MIC: Streptococcus pyogenes
Procedure: as §1

Human DHFR = biological target: T2, Human DHFR (Homo sapiens, UniProt P00374); assay: DHFR enzyme inhibition assay (NADPH oxidation, 340 nm); format: biochemical
T2 sequence (P00374 1-187): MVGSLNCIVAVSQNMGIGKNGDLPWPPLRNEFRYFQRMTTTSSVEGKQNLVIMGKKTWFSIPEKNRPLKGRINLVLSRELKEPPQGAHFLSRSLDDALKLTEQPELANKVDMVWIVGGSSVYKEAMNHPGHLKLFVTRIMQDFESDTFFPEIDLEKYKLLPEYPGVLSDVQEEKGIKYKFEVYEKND
Procedure: as §3

hVISA Mu3 = assay: MIC against clinical isolates of MRSA; format: cell-based; conditions: Staphylococcus aureus, read-out: MIC hVISA Mu3
[1] = system: TMP-SMZ-resistant MRSA strain; assay: MIC against clinical isolates of MRSA; format: cell-based; conditions: Staphylococcus aureus, read-out: MIC TMP-SMZ^R
VISA Mu50 = assay: MIC against clinical isolates of MRSA; format: cell-based; conditions: Staphylococcus aureus, read-out: MIC VISA Mu50
USA100 HA-MRSA = assay: MIC against clinical isolates of MRSA; format: cell-based; conditions: Staphylococcus aureus
USA300 CA-MRSA = assay: MIC against clinical isolates of MRSA; format: cell-based, Staphylococcus aureus
HA-MRSA = assay: MIC against clinical isolates of MRSA; format: cell-based; conditions: Staphylococcus aureus, read-out: MIC HA-MRSA
[2] = 10% fetal calf serum, read-out: MIC MRSA +FCS
[3] = 10% fetal calf serum, value in parentheses, read-out: MIC MRSA +FCS
[4] = value in parentheses, read-out: MIC MRSA
[5] = S. aureus DHFR, average of at least three measurements, read-out: IC50 (nM) Sa
[6] = 10% FCS, read-out: MIC S. pyogenes +FCS
[7] = 10% FCS, value in parentheses, read-out: MIC S. pyogenes +FCS
[8] = value in parentheses, read-out: MIC S. pyogenes
[9] = human DHFR, average of at least three measurements, read-out: IC50 (nM) Human

Compound	Selectivity MRSA (MRSA (S.aureus 13709))	MIC (MRSA (S.aureus 13709); [2])	MIC (MRSA (S.aureus 13709); [3])	MIC (MRSA (S.aureus 13709); [4])	MIC (MRSA (S.aureus 13709); read-out: MIC MRSA)	IC50 (S. aureus DHFR; [5])	Selectivity (h/Sp) (S. pyogenes DHFR)	IC50 (MCF-10 cells)	IC50 (HepG2 cells)	Selectivity S. pyogenes (Streptococcus pyogenes)	MIC (Streptococcus pyogenes; [6])	MIC (Streptococcus pyogenes; [7])	MIC (Streptococcus pyogenes; [8])	MIC (Streptococcus pyogenes; read-out: MIC S. pyogenes)	IC50 (Human DHFR; [9])	Selectivity (h/Sa) (S. aureus DHFR; IC50 (human)/IC50 (pathogen))	other results
COc1ccc(-c2ccccc2)cc1C(C)C#Cc1c(C)nc(N)nc1N (stereo not drawn) [Compound 10]	19	11.4 µg/mL	32 µM	2 µM	0.72 µg/mL	75 ± 4 nM	4	38000 nM	94000 nM	76	5.7 µg/mL	16 µM	0.5 µM	0.18 µg/mL	97 ± 10 nM		Selectivity (h/Sa) (S. aureus DHFR): 1.3
CCc1nc(N)nc(N)c1C#CC(C)c1cc(-c2ccccc2)ccc1OC (stereo not drawn) [Compound 11]	27	11.9 µg/mL	32 µM	2 µM	0.74 µg/mL	67 ± 5.5 nM	4	54000 nM	77000 nM	27	6 µg/mL	16 µM	2 µM	0.74 µg/mL	100 ± 10 nM	1.5	
COc1cc(C(C)C#Cc2c(C)nc(N)nc2N)cc(N2CCOCC2)c1 (stereo not drawn) [Compound 31]	116	2.94 µg/mL	8 µM	4 µM	1.5 µg/mL	29 ± 2 nM	15	462000 nM	494000 nM	58	2.94 µg/mL	8 µM	8 µM	2.94 µg/mL	400 ± 40 nM	14	
CCc1nc(N)nc(N)c1C#CCc1cccc(-c2cncnc2)c1 [Compound 37]	>1,000	0.16 µg/mL	0.5 µM	0.5 µM	0.16 µg/mL		7	> 500000 nM		>1,000	0.16 µg/mL	0.5 µM	0.5 µM	0.16 µg/mL		5	IC50 (S. aureus DHFR): 35 ± 1.1 nM; IC50 (Human DHFR): 160 ± 13 nM
CN[C@H](CC(C)C)C(=O)N[C@H]1C(=O)N[C@@H](CC(N)=O)C(=O)N[C@H]2C(=O)N[C@H]3C(=O)N[C@H](C(=O)N[C@H](C(=O)O)c4cc(O)cc(O)c4-c4cc3ccc4O)[C@H](O)c3ccc(c(Cl)c3)Oc3cc2cc(c3O[C@@H]2O[C@H](CO)[C@@H](O)[C@H](O)[C@H]2O[C@H]2C[C@](C)(N)[C@H](O)[C@H](C)O2)Oc2ccc(cc2Cl)[C@H]1O [Vancomycin, reference compound]																	MIC (hVISA Mu3): 3 µg/mL (≈ 2.07 µM); MIC [1]: 2 µg/mL (≈ 1.38 µM); MIC (VISA Mu50): 8 µg/mL (≈ 5.52 µM); MIC (USA100 HA-MRSA; read-out: MIC USA100 HA-MRSA, clinical isolate, USA100): 1 µg/mL (≈ 0.69 µM); MIC (USA100 HA-MRSA; read-out: MIC USA100 HA-MRSA, clinical isolate, first USA100 column): 0.5 µg/mL (≈ 0.345 µM); MIC (USA100 HA-MRSA; read-out: MIC USA100 HA-MRSA, clinical isolate, third USA100 column): 1 µg/mL (≈ 0.69 µM); MIC (USA300 CA-MRSA; Staphylococcus aureus, read-out: MIC USA300 CA-MRSA): 1 µg/mL (≈ 0.69 µM); MIC USA300 CA-MRSA (USA300 CA-MRSA; clinical isolate, USA300): 1 µg/mL (≈ 0.69 µM); MIC (HA-MRSA): 1 µg/mL (≈ 0.69 µM)
